From ChEMBL document CHEMBL3045535, “Evaluation of lufenuron as a chemosterilant against fruit flies of the genus Anastrepha (Diptera: Tephritidae)” (2010)
Calls of active or inactive are those of the source. The rule behind the calls is not given here.

Columns and labels:
[1] = test system: Anastrepha obliqua; test: Effect on fertility in 7 days old adult male of Anastrepha obliqua at 30 mg/g treated with diet after 24 hr in presence of untreated adult female of Anastrepha obliqua; assay type: functional, organism-based
[2] = test system: Anastrepha serpentina; test: Reduction of fertility in 7 days old adult of Anastrepha serpentina assessed as reduction of egg hatching at 10 mg/g treated with diet measured after 3 days oviposition; assay type: functional; parameters: scale not given: the % may be the effect or the level left
[3] = test system: Anastrepha striata; test: Reduction of fertility in 7 days old adult of Anastrepha striata assessed as reduction of egg hatching at 30 mg/g treated with diet measured after 5 days oviposition; assay type: functional; parameters: scale not given: the % may be the effect or the level left
[4] = test system: Anastrepha serpentina; test: Reduction of fertility in 7 days old adult of Anastrepha serpentina assessed as reduction of egg hatching at 0.1 mg/g treated with diet measured after 5 days oviposition; assay type: functional; parameters: scale not given: the % may be the effect or the level left
[5] = test system: Anastrepha striata; test: Reduction of fertility in 7 days old adult of Anastrepha striata assessed as reduction of egg hatching at 0.1 mg/g treated with diet measured after 7 days oviposition; assay type: functional; parameters: scale not given: the % may be the effect or the level left
[6] = test system: Anastrepha serpentina; test: Reduction of fertility in 7 days old adult of Anastrepha serpentina assessed as reduction of egg hatching at 10 mg/g treated with diet measured after 9 days oviposition; assay type: functional; parameters: scale not given: the % may be the effect or the level left
[7] = test system: Anastrepha striata; test: Reduction of fertility in 7 days old adult of Anastrepha striata assessed as reduction of egg hatching at 5 mg/g treated with diet measured after 11 days oviposition; assay type: functional; parameters: scale not given: the % may be the effect or the level left
[8] = test system: Anastrepha ludens; test: Reduction of fertility in 7 days old adult of Anastrepha ludens assessed as reduction of egg hatching at 10 mg/g treated with diet measured after 5 days oviposition; assay type: functional; parameters: scale not given: the % may be the effect or the level left
[9] = test system: Anastrepha striata; test: Reduction of fertility in 7 days old adult of Anastrepha striata assessed as reduction of egg hatching at 0.1 mg/g treated with diet measured after 9 days oviposition; assay type: functional; parameters: scale not given: the % may be the effect or the level left
[10] = test system: Anastrepha obliqua; test: Effect on fecundity in 7 days old adult female of Anastrepha obliqua at 30 mg/g treated with diet after 24 hr in presence of untreated adult male of Anastrepha obliqua; assay type: functional, organism-based
[11] = test system: Anastrepha serpentina; test: Reduction of fertility in 7 days old adult of Anastrepha serpentina assessed as reduction of egg hatching at 30 mg/g treated with diet measured after 9 days oviposition; assay type: functional; parameters: scale not given: the % may be the effect or the level left
[12] = test system: Anastrepha obliqua; test: Reduction of fertility in 7 days old adult of Anastrepha obliqua assessed as reduction of egg hatching at 0.5 mg/g treated with diet measured after 5 days oviposition; assay type: functional; parameters: scale not given: the % may be the effect or the level left
[13] = test system: Anastrepha striata; test: Reduction of fertility in 7 days old adult of Anastrepha striata assessed as reduction of egg hatching at 0.5 mg/g treated with diet measured after 11 days oviposition; assay type: functional; parameters: scale not given: the % may be the effect or the level left
[14] = test system: Anastrepha serpentina; test: Reduction of fertility in 7 days old adult of Anastrepha serpentina assessed as reduction of egg hatching at 5 mg/g treated with diet measured after 11 days oviposition; assay type: functional; parameters: scale not given: the % may be the effect or the level left
[15] = test system: Anastrepha obliqua; test: Effect on fecundity in 7 days old adult male of Anastrepha obliqua at 30 mg/g treated with diet after 24 hr in presence of untreated adult female of Anastrepha obliqua; assay type: functional, organism-based
[16] = test system: Anastrepha striata; test: Effect on fertility in 7 days old adult male of Anastrepha striata at 30 mg/g treated with diet after 24 hr in presence of untreated adult female of Anastrepha striata; assay type: functional, organism-based
[17] = test system: Anastrepha obliqua; test: Reduction of fertility in 7 days old adult of Anastrepha obliqua assessed as reduction of egg hatching at 30 mg/g treated with diet measured after 1 day oviposition; assay type: functional; parameters: scale not given: the % may be the effect or the level left
[18] = test system: Anastrepha striata; test: Reduction of fertility in 7 days old adult of Anastrepha striata assessed as reduction of egg hatching at 10 mg/g treated with diet measured after 1 day oviposition; assay type: functional; parameters: scale not given: the % may be the effect or the level left
[19] = test system: Anastrepha obliqua; test: Reduction of fertility in 7 days old adult of Anastrepha obliqua assessed as reduction of egg hatching at 0.1 mg/g treated with diet measured after 5 days oviposition; assay type: functional; parameters: scale not given: the % may be the effect or the level left
[20] = test system: Anastrepha obliqua; test: Reduction of fertility in 7 days old adult of Anastrepha obliqua assessed as reduction of egg hatching at 1 mg/g treated with diet measured after 3 days oviposition; assay type: functional; parameters: scale not given: the % may be the effect or the level left
[21] = test system: Anastrepha striata; test: Reduction of fertility in 7 days old adult of Anastrepha striata assessed as reduction of egg hatching at 1 mg/g treated with diet measured after 5 days oviposition; assay type: functional; parameters: scale not given: the % may be the effect or the level left
[22] = test system: Anastrepha serpentina; test: Reduction of fertility in 7 days old adult of Anastrepha serpentina assessed as reduction of egg hatching at 30 mg/g treated with diet measured after 7 days oviposition; assay type: functional; parameters: scale not given: the % may be the effect or the level left
[23] = test system: Anastrepha serpentina; test: Reduction of fertility in 7 days old adult of Anastrepha serpentina assessed as reduction of egg hatching at 5 mg/g treated with diet measured after 7 days oviposition; assay type: functional; parameters: scale not given: the % may be the effect or the level left
[24] = test system: Anastrepha serpentina; test: Reduction of fertility in 7 days old adult of Anastrepha serpentina assessed as reduction of egg hatching at 0.1 mg/g treated with diet measured after 1 day oviposition; assay type: functional; parameters: scale not given: the % may be the effect or the level left
[25] = test system: Anastrepha striata; test: Reduction of fertility in 7 days old adult of Anastrepha striata assessed as reduction of egg hatching at 30 mg/g treated with diet measured after 11 days oviposition; assay type: functional; parameters: scale not given: the % may be the effect or the level left
[26] = test system: Anastrepha striata; test: Reduction of fertility in 7 days old adult of Anastrepha striata assessed as reduction of egg hatching at 0.5 mg/g treated with diet measured after 5 days oviposition; assay type: functional; parameters: scale not given: the % may be the effect or the level left
[27] = test system: Anastrepha ludens; test: Reduction of fertility in 7 days old adult of Anastrepha ludens assessed as reduction of egg hatching at 10 mg/g treated with diet measured after 9 days oviposition; assay type: functional; parameters: scale not given: the % may be the effect or the level left
[28] = test system: Anastrepha obliqua; test: Reduction of fertility in 7 days old adult of Anastrepha obliqua assessed as reduction of egg hatching at 0.1 mg/g treated with diet measured after 1 day oviposition; assay type: functional; parameters: scale not given: the % may be the effect or the level left
[29] = test system: Anastrepha ludens; test: Reduction of fertility in 7 days old adult of Anastrepha ludens assessed as reduction of egg hatching at 30 mg/g treated with diet measured after 11 days oviposition; assay type: functional; parameters: scale not given: the % may be the effect or the level left
[30] = test system: Anastrepha obliqua; test: Reduction of fertility in 7 days old adult of Anastrepha obliqua assessed as reduction of egg hatching at 30 mg/g treated with diet measured after 11 days oviposition; assay type: functional; parameters: scale not given: the % may be the effect or the level left
[31] = test system: Anastrepha serpentina; test: Effect on fecundity in 7 days old adult of Anastrepha serpentina at 0.1 to 30 mg/g treated with diet after 24 hr; assay type: functional, organism-based
[32] = test system: Anastrepha ludens; test: Reduction of fertility in 7 days old adult of Anastrepha ludens assessed as reduction of egg hatching at 1 mg/g treated with diet measured after 9 days oviposition; assay type: functional; parameters: scale not given: the % may be the effect or the level left
[33] = test system: Anastrepha serpentina; test: Reduction of fertility in 7 days old adult of Anastrepha serpentina assessed as reduction of egg hatching at 5 mg/g treated with diet measured after 9 days oviposition; assay type: functional; parameters: scale not given: the % may be the effect or the level left
[34] = test system: Anastrepha obliqua; test: Reduction of fertility in 7 days old adult of Anastrepha obliqua assessed as reduction of egg hatching at 0.1 mg/g treated with diet measured after 3 days oviposition; assay type: functional; parameters: scale not given: the % may be the effect or the level left
[35] = test system: Anastrepha striata; test: Reduction of fertility in 7 days old adult of Anastrepha striata assessed as reduction of egg hatching at 30 mg/g treated with diet measured after 9 days oviposition; assay type: functional; parameters: scale not given: the % may be the effect or the level left
[36] = test system: Anastrepha serpentina; test: Reduction of fertility in 7 days old adult of Anastrepha serpentina assessed as reduction of egg hatching at 0.5 mg/g treated with diet measured after 1 day oviposition; assay type: functional; parameters: scale not given: the % may be the effect or the level left
[37] = test system: Anastrepha striata; test: Effect on fecundity in 7 days old adult of Anastrepha striata at 0.1 to 30 mg/g treated with diet after 24 hr; assay type: functional, organism-based
[38] = test system: Anastrepha ludens; test: Reduction of fertility in 7 days old adult of Anastrepha ludens assessed as reduction of egg hatching at 30 mg/g treated with diet measured after 1 day oviposition; assay type: functional; parameters: scale not given: the % may be the effect or the level left
[39] = test system: Anastrepha serpentina; test: Reduction of fertility in 7 days old adult of Anastrepha serpentina assessed as reduction of egg hatching at 10 mg/g treated with diet measured after 5 days oviposition; assay type: functional; parameters: scale not given: the % may be the effect or the level left
[40] = test system: Anastrepha ludens; test: Effect on fertility in 7 days old adult female of Anastrepha ludens at 30 mg/g treated with diet after 24 hr in presence of untreated adult male of Anastrepha ludens; assay type: functional, organism-based
[41] = test system: Anastrepha ludens; test: Reduction of fertility in 7 days old adult of Anastrepha ludens assessed as reduction of egg hatching at 0.1 mg/g treated with diet measured after 3 days oviposition; assay type: functional; parameters: scale not given: the % may be the effect or the level left

Compound: O=C(NC(=O)c1c(F)cccc1F)Nc1cc(Cl)c(OC(F)(F)C(F)C(F)(F)F)cc1Cl (racemic) [LUFENURON]
- Activity [1]: inactive
- Activity [2]: 34.4%
- Activity [3]: 4%
- Activity [4]: 74.6%
- Activity [5]: 72%
- Activity [6]: 85.3%
- Activity [7]: 6.7%
- Activity [8]: 2.7%
- Activity [9]: 70.7%
- Activity [10]: inactive
- Activity [11]: 76.7%
- Activity [12]: 0%
- Activity [13]: 28.7%
- Activity [14]: 86.7%
- Activity [15]: inactive
- Activity [16]: inactive
- Activity [17]: 0%
- Activity [18]: 2%
- Activity [19]: 8.7%
- Activity [20]: 0%
- Activity [21]: 4.5%
- Activity [22]: 54.2%
- Activity [23]: 96.7%
- Activity [24]: 98.9%
- Activity [25]: 8%
- Activity [26]: 14%
- Activity [27]: 14.7%
- Activity [28]: 14.7%
- Activity [29]: 15.3%
- Activity [30]: 2%
- Activity [31]: Active
- Activity [32]: 20%
- Activity [33]: 83.3%
- Activity [34]: 7.3%
- Activity [35]: 7.3%
- Activity [36]: 88.3%
- Activity [37]: Active
- Activity [38]: 3%
- Activity [39]: 54.7%
- Activity [40]: inactive
- Activity [41]: 18.7%
